Our source for the inhibition values is patent US8106055B2, “Substituted amide compounds” (Gruenenthal GmbH, priority 2007, dated 2012).

For assay [1], the target named is T1, bradykinin 1 receptor (B1R) of the rat (Rattus norvegicus, UniProt P97583).
T1 construct: expressed in transfected cells; host or cells: CHO K1 cells
T1 sequence (P97583 1-337): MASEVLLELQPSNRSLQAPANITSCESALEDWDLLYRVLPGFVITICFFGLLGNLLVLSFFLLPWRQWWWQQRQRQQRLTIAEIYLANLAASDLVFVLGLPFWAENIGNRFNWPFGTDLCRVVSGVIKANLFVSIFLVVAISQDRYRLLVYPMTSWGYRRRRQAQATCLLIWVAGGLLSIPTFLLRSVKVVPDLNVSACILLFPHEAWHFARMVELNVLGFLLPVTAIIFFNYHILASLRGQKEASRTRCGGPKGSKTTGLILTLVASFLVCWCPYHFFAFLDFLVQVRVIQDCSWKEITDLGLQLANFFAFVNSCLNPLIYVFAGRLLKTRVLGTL
The assay can be described thus: Functional investigation on the rat bradykinin 1 receptor (B1R), Ca2+ FLIPR assay in CHO K1 rB1R cells. In kind it is cell-based. The source says:
(§1) Functional Investigation on the Human Bradykinin 1 Receptor (B1R)
(§2) The agonistic or antagonistic action of substances can be determined on the bradykinin 1 receptor (B1R) of the human species and rats with the following assay. In accordance with this assay, the Ca^2+ inflow through the channel is quantified with the aid of a Ca^2=-sensitive dyestuff (type Fluo-4, Molecular Probes Europe BV, Leiden, Holland) in a fluorescent imaging plate reader (FLIPR, Molecular Devices, Sunnyvale, USA).
(§3) Chinese hamster ovary cells (CHO K1 cells) transfected stably with the human B1R gene (hB1R cells) or the B1R gene of the rat (rB1R cells) are used. For functional studies, these cells are plated out on black 96-well plates with a clear base (BD Biosciences, Heidelberg, Germany or Greiner, Frickenhausen, Germany) in a density of 20,000-35,000 cells/well. The cells are left overnight at 37° C. and 5% CO2 in culture medium (hB1R cells: Nutrient Mixture Ham's F12, Gibco Invitrogen GmbH, Karlsruhe, Germany or DMEM, Sigma-Aldrich, Taufkirchen, Germany; rB1R cells: D-MEM/F12, Gibco Invitrogen GmbH, Karlsruhe, Germany) with 10 vol. % of FBS (foetal bovine serum, Gibco Invitrogen GmbH, Karlsruhe, Germany or PAN Biotech GmbH, Aidenbach, Germany).
(§4) On the following day, the cells are loaded for 60 min at 37° C. with 2.13 μM Fluo-4 (Molecular Probes Europe BV, Leiden, The Netherlands) in HBSS buffer (Hank's buffered saline solution, Gibco Invitrogen GmbH, Karlsruhe, Germany) with 2.5 mM probenecid (Sigma-Aldrich, Taufkirchen, Germany) and 10 mM HEPES (Sigma-Aldrich, Taufkirchen, Germany). The plates are then washed 2× with HBSS buffer, and HBSS buffer which additionally contains 0.1% of BSA (bovine serum albumin; Sigma-Aldrich, Taufkirchen, Germany), 5.6 mM glucose and 0.05% of gelatine (Merck KGaA, Darmstadt, Germany) is added. After a further incubation of 20 minutes at room temperature, the plates are inserted into the FLIPR for the Ca^2+ measurement.
(§5) Alternatively, the plates are washed with buffer A (15 mM HEPES, 80 mM NaCl, 5 mM KCl, 1.2 mM CaCl2, 0.7 mM MgSO4, 2 g/l glucose, 2.5 mM probenecid), buffer A is added and the plates are loaded with 2.5 μM Fluo-4 and 0.025% of Pluronic F127 (Sigma-Aldrich, Taufkirchen, Germany). Thereafter, the cells are washed 2× with buffer A and incubated for 30 minutes with buffer A, which additionally contains 0.05% of BSA and 0.05% of gelatine, at room temperature and thereafter inserted into the FLIPR for the Ca^2+ measurement.
(§6) The Ca^2+-dependent fluorescence is measured before and after addition of substances (λex=488 nm, λem=540 nm). Quantification is by measurement of the highest fluorescence intensity (FC, fluorescence counts) over time.
(§7) The FLIPR protocol consists of 2 additions of substance. Test substances (10 μM) are first pipetted on to the cells and the Ca^2+ inflow is compared with the control (hB1R: Lys-Des-Arg^9-bradykinin >=50 nM; rB1R: Des-Arg^9-bradykinin 10 μM). This gives the information in % activation based on the Ca^2+ signal after addition of Lys-Des-Arg^9-bradykinin (>=50 nM) or Des-Arg^9-bradykinin (10 μM).
(§8) After incubation for 10-20 minutes, Lys-Des-Arg^9-bradykinin (hB1R) or Des-Arg^9-bradykinin (rB1R) is applied in the concentration of the EC80 and the inflow of Ca^2+ is likewise determined.
(§9) Antagonists lead to a suppression of the Ca^2+ inflow. % inhibition compared with the maximum achievable inhibition is calculated.
(§10) To determine the IC50 value, the substances are added in various concentrations. Duplicate or triplicate determinations (n=2 or n=3) are carried out, and these are repeated in at least one further independent experiment (N>=2).
(§11) Preferably, the compounds have a B1R antagonistic action on the human receptor and/or on the rat receptor. The following data are given by way of example in the following table: (In this, “B1R Ant. h” represents “B1R antagonism human” and “B1R Ant. r” represents “B1R antagonism rat”)

Assay [2] has as its target T2, human bradykinin 1 receptor (B1R) (Homo sapiens, UniProt P46663).
T2 construct: expressed in transfected cells; host or cells: CHO K1 cells
T2 sequence (P46663 1-353): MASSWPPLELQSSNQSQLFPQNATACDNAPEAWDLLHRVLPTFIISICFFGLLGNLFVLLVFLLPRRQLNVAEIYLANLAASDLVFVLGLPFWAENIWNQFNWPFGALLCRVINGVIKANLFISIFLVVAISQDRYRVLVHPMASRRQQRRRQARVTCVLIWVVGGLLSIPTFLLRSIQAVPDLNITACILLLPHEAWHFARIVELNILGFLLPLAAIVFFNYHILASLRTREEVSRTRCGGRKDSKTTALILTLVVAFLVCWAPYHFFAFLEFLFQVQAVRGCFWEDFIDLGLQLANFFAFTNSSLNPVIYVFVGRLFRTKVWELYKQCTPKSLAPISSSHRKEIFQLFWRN
As to the kind of experiment: Functional investigation on the human bradykinin 1 receptor (B1R), Ca2+ FLIPR assay in CHO K1 hB1R cells. In kind it is cell-based.
Text: as §1, §2, §3, §4, §5, §6, §7, §8, §9, §10, §11

The mark [3] stands for this setting: CHO-K1, B1R antagonism rat, test substance 10 μM, Ca2+ FLIPR, CHO K1 rB1R cells, read-out: B1R Ant. r [10 μM] % Inhibition.
Setting [4] is: CHO-K1, B1R antagonism human, test substance 10 μM, Ca2+ FLIPR, CHO K1 hB1R cells, read-out: B1R Ant. h [10 μM] % Inhibition.
Where [5] appears, read: CHO-K1, read-out: B1R Ant. r [10 μM] % Inhibition.
The mark [6] stands for this setting: CHO-K1, read-out: B1R Ant. h [10 μM] % Inhibition.

Where two headings read alike, the source gives them in different places.

By inhibition is commonly meant the change of the read-out against control, counted positive when it falls. For `CN(C)C(CCc1ccccc1)C1CCC(NC(=O)CNC(=O)c2nc(-c3cc(Cl)cc(Cl)c3)no2)CC1` (stereo not shown) [Example 790, 3-(3,5-dichloro-phenyl)-[1,2,4]oxadiazole-5-carboxylic acid {[4-(1-dimethylamino-3-phenyl-propyl)-cyclohexylcarbamoyl]-methyl}-amide], the inhibition at 10 µM stood at 11% in assay [1] (setting [3]) and 35% in assay [2] (setting [4]).
The matching figures for `CN(Cc1ccccc1)C(c1ccccc1)C1CCC(NC(=O)COCCN(C2CC2)S(=O)(=O)c2c(Cl)cc(Cl)cc2Cl)CC1` (stereo not shown) [Example 604, N-{4-[(benzylmethylamino)-phenylmethyl]-cyclohexyl}-2-{2-[cyclopropyl-(2,4,6-trichlorobenzenesulfonyl)-amino]-ethoxy}-acetamide]: 33% and -18%.
With `CN(C)C(c1cccs1)C1CCC(NC(=O)CNC(=O)c2nc(-c3ccc(C(C)(C)C)cc3)no2)CC1` (stereo not shown) [Example 779, 3-(4-tert-butyl-phenyl)-[1,2,4]oxadiazole-5-carboxylic acid {[4-(dimethylamino-thiophen-2-yl-methyl)-cyclohexylcarbamoyl]-methyl}-amide], the inhibition at 10 µM was -13% in assay [1] (setting [3]) and -10% in assay [2] (setting [4]).
The matching figures for `CN(C)C(c1ccccc1)C1CCC(NC(=O)CCNC(=O)c2nc(-c3cccs3)no2)CC1` (stereo not shown) [Example 776, 3-thiophen-2-yl-[1,2,4]oxadiazole-5-carboxylic acid {2-[4-(dimethylamino-phenyl-methyl)-cyclohexylcarbamoyl]-ethyl}-amide]: 30% and -22%.
With `COc1ccc(-c2noc(C(=O)NCCC(=O)NC3CCC(C(c4ccccc4)N(C)C)CC3)n2)cc1OC` (stereo not shown) [Example 774, 3-(3,4-dimethoxy-phenyl)-[1,2,4]oxadiazole-5-carboxylic acid {2-[4-(dimethylamino-phenyl-methyl)-cyclohexylcarbamoyl]-ethyl}-amide], the inhibition at 10 µM was 2% in assay [1] (setting [3]) and -8% in assay [2] (setting [4]).
With `CN(C)C(c1cccs1)C1CCC(NC(=O)CNC(=O)c2nc(-c3ccc(C(F)(F)F)cc3)no2)CC1` (stereo not shown) [Example 777, 3-(4-trifluoromethyl-phenyl)-[1,2,4]oxadiazole-5-carboxylic acid {[4-(dimethylamino-thiophen-2-yl-methyl)-cyclohexylcarbamoyl]-methyl}-amide], the values for the inhibition at 10 µM in assay [1] (setting [3]) and in assay [2] (setting [4]) were 27% and -1%, respectively.
The matching figures for `CN(C)C(c1ccccc1)C1CCC(NC(=O)CNC(=O)c2nc(-c3ccc(C(C)(C)C)cc3)no2)CC1` (stereo not shown) [Example 766, 3-(4-tert-butyl-phenyl)-[1,2,4]oxadiazole-5-carboxylic acid {[4-(dimethylamino-phenyl-methyl)-cyclohexylcarbamoyl]-methyl}-amide]: -9% and 6%.
Take `CN(C)C(CCc1ccccc1)C1CCC(NC(=O)CCNC(=O)c2nc(-c3ccc4c(c3)OCO4)no2)CC1` (stereo not shown) [Example 792, 3-benzo[1,3]dioxol-5-yl-[1,2,4]oxadiazole-5-carboxylic acid {2-[4-(1-dimethylamino-3-phenyl-propyl)-cyclohexylcarbamoyl]-ethyl}-amide]: the inhibition at 10 µM is 2% in assay [1] (setting [5]) and 9% in assay [2] (setting [6]).
In the case of `CN(C)C(c1ccccc1)C1CCC(NC(=O)CNC(=O)c2nc(CS(=O)(=O)c3ccccc3)no2)CC1` (stereo not shown) [Example 769, 3-benzenesulfonylmethyl-[1,2,4]oxadiazole-5-carboxylic acid {[4-(dimethylamino-phenyl-methyl)-cyclohexylcarbamoyl]-methyl}-amide], the inhibition at 10 µM in assay [1] (setting [3]) is 39%; in assay [2] (setting [4]), 15%.
Turning to `CN(C)C(c1ccccc1)C1CCC(NC(=O)CNC(=O)c2nc(-c3c(Cl)cccc3Cl)no2)CC1` (stereo not shown) [Example 770, 3-(2,6-dichloro-phenyl)-[1,2,4]oxadiazole-5-carboxylic acid {[4-(dimethylamino-phenyl-methyl)-cyclohexylcarbamoyl]-methyl}-amide], the inhibition at 10 µM in assay [1] (setting [3]) worked out at 16%; in assay [2] (setting [4]) it was 53%.
Regarding `CN(C)C(CCc1ccccc1)C1CCC(NC(=O)CCNC(=O)c2nc(-c3ccc(Cl)cc3Cl)no2)CC1` (stereo not shown) [Example 788, 3-(2,4-dichloro-phenyl)-[1,2,4]oxadiazole-5-carboxylic acid {2-[4-(1-dimethylamino-3-phenyl-propyl)-cyclohexylcarbamoyl]-ethyl}-amide], the inhibition at 10 µM in assay [1] (setting [3]) came out at 11%; in assay [2] (setting [4]), 90%.
As to `CN(C)C(c1cccc(F)c1)C1CCC(CNC(=O)CNC(=O)c2nc(-c3ccc(C(F)(F)F)cc3)no2)CC1` (stereo not shown) [Example 778, 3-(4-trifluoromethyl-phenyl)-[1,2,4]oxadiazole-5-carboxylic acid [({4-[dimethylamino-(3-fluoro-phenyl)-methyl]-cyclohexylmethyl}-carbamoyl)-methyl]-amide], the figures for the inhibition at 10 µM in assay [1] (setting [3]) and in assay [2] (setting [4]) were 12% and -1%, respectively.
For the compound `CN(C)C(CCc1ccccc1)C1CCC(NC(=O)CNC(=O)c2nc(-c3ccccn3)no2)CC1` (stereo not shown) [Example 791, 3-pyridin-2-yl-[1,2,4]oxadiazole-5-carboxylic acid {[4-(1-dimethylamino-3-phenyl-propyl)-cyclohexylcarbamoyl]-methyl}-amide], the inhibition at 10 µM in assay [1] (setting [5]) is 16%; in assay [2] (setting [6]) it was -3%.
With `CN(C)C(c1ccccc1)C1CCC(NC(=O)CNC(=O)c2nc(-c3cc(Cl)cc(Cl)c3)no2)CC1` (stereo not shown) [Example 760, 3-(3,5-dichloro-phenyl)-[1,2,4]oxadiazole-5-carboxylic acid {[4-(dimethylamino-phenyl-methyl)-cyclohexylcarbamoyl]-methyl}-amide], the inhibition at 10 µM in assay [1] (setting [3]) was -4%; in assay [2] (setting [4]) it was 66%.
